In this assay the test system is Cricetinae gen. sp. The assay is described as follows: In vivo activity, with an ED50 inlowering cholesterol levels in the cholesterol-fed hamster. The assay is classed as functional, Cricetulus griseus.

The source of these data is ChEMBL document CHEMBL1128039, “Acyl CoA:cholesterol acyltransferase (ACAT) inhibitors: ureas bearing two heterocyclic head groups” (Bioorg Med Chem Lett, 1995).

With `CCCCCCCN(CCCCCSc1nc(-c2ccccc2)c(-c2ccccc2)[nH]1)C(=O)Nc1ccc(F)cc1F` [LECIMIBIDE], the ED50 amounted to 3 mg/kg.

Broadly, the ED50 is the dose at which the effect has come halfway, by size or by number of responders. The low end stands for an effect at a small dose, the high end for a need for a large dose.
